As a reminder, the AC50 is the midpoint of the concentration-response curve, whichever way the signal moves. For orientation: EC50 means the concentration at which the effect is half-maximal. What is called IC50 is the concentration needed to halve the response being measured. What is called Ki is the equilibrium dissociation constant of an inhibitor or competing ligand from its target.

Experiment [1] concerns the target Dual specificity tyrosine-phosphorylation-regulated kinase 1A (Rattus norvegicus, UniProt Q63470). Format: biochemical, Homo sapiens.
Experiment [2] has as its target T1, Replicative DNA helicase DnaB (Mycobacterium tuberculosis, UniProt P9WMR3).
T1 sequence (P9WMR3 whole entry): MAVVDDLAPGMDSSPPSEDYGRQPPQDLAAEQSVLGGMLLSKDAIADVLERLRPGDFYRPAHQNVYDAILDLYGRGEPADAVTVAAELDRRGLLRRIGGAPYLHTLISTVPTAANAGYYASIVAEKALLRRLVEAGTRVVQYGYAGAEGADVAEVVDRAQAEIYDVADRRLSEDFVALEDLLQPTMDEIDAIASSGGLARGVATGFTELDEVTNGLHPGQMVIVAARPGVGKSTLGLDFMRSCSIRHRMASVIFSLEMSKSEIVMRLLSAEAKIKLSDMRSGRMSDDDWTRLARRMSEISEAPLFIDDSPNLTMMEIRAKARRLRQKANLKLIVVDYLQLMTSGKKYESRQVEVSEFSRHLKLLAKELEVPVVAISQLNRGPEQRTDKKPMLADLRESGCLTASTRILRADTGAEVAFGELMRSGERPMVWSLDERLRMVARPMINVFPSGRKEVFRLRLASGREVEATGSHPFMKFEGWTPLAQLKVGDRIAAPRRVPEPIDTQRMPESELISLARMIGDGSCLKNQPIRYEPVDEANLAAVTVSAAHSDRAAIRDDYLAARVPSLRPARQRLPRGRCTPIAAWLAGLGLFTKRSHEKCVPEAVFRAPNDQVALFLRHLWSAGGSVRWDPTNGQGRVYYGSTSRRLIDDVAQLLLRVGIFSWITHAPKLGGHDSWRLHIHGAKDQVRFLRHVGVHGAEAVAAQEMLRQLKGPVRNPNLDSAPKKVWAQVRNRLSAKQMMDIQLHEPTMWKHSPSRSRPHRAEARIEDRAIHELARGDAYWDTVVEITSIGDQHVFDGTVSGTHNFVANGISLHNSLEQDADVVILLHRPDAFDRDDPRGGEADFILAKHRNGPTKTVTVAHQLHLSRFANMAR
Nature of the experiment: DnaB intein splicing inhibitors, dose response, biochemical, cell-free fluorescence (AID 449749). The class given is functional.

Experiment [3] has as its target T2, Protein RecA (Mycobacterium tuberculosis, UniProt P9WHJ3).
T2 sequence (P9WHJ3 whole entry): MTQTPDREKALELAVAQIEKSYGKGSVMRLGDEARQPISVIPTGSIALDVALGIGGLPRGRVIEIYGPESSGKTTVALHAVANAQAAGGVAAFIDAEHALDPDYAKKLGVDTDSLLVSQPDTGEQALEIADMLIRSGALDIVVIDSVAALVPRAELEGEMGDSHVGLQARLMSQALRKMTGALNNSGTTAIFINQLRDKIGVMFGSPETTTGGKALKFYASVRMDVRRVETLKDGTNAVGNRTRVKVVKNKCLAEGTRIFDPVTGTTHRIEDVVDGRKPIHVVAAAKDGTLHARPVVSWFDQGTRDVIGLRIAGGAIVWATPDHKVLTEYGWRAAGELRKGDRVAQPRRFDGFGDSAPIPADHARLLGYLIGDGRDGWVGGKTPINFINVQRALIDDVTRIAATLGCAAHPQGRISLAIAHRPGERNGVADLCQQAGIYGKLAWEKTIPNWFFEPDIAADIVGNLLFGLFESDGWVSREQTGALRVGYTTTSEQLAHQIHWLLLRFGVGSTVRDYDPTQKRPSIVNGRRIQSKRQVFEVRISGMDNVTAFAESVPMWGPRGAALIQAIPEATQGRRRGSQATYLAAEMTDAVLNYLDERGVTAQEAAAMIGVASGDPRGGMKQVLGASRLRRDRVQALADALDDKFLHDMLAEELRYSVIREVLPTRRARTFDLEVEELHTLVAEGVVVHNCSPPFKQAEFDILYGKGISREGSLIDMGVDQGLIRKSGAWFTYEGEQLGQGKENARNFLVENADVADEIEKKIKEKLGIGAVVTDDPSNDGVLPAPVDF
Nature of the experiment: Fluorescence Cell-Free Homogeneous Dose Retest to Identify Inhibitors of RecA-Intein Splicing Activity. [Related pubchem assays (depositor defined):AID2097, AID2223, AID489010, AID492950]. Format: functional.

Experiment [4] addresses Photoreceptor-specific nuclear receptor (Homo sapiens, UniProt Q9Y5X4). Format: functional.
In experiment [5] the test system is HEK293. In words: NOD2 signaling inhibitors in MDP-stimulated cells, cell-based, uHTS, luminescence (AID 2001). The class given is functional. The note with it: Homo sapiens.
For experiment [6], the target named is Proto-oncogene tyrosine-protein kinase receptor Ret (Homo sapiens, UniProt P07949). Format: functional.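 Further: measured within a kinome-wide profiling panel, RET as the panel member.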
Chain of Proto-oncogene tyrosine-protein kinase receptor Ret (P07949 whole entry): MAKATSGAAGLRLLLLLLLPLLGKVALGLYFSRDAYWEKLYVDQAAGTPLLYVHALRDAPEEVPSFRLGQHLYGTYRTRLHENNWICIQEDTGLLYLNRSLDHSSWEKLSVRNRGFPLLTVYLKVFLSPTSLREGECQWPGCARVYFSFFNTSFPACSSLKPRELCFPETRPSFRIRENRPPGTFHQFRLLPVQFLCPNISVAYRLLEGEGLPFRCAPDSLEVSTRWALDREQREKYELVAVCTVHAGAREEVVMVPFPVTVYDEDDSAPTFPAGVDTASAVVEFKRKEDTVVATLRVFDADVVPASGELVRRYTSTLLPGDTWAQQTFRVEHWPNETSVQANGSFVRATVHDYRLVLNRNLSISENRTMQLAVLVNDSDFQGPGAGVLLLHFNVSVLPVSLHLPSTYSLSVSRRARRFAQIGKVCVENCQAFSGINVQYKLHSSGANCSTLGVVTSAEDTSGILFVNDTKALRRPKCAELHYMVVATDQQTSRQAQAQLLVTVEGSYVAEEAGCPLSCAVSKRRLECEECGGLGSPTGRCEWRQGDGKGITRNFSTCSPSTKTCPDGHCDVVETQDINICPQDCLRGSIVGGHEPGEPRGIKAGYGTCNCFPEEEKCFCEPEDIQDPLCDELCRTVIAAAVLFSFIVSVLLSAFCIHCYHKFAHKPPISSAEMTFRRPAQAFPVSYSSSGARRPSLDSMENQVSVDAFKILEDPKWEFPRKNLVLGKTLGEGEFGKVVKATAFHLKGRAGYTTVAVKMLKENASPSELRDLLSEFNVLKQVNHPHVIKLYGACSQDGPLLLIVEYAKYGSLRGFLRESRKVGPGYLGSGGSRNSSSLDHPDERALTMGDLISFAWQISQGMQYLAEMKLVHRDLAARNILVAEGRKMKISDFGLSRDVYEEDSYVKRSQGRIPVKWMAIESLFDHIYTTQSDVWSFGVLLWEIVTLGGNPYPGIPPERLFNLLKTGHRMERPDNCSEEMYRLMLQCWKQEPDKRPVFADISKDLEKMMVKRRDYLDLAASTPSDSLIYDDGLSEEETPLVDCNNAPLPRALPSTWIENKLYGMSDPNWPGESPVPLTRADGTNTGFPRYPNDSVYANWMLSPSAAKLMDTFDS
Experiment [7] has as its target Inhibitor of nuclear factor kappa-B kinase subunit epsilon (Homo sapiens, UniProt Q14164). In words: Navigating the Kinome. Panel member name: IKBKE. Format: functional.
Experiment [8] has as its target Activated CDC42 kinase 1 (Homo sapiens, UniProt Q07912). Nature of the experiment: Navigating the Kinome. Panel member name: ACK1. Format: functional.
For experiment [9], the target named is Homeodomain-interacting protein kinase 2 (Homo sapiens, UniProt Q9H2X6). The class given is functional.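 Further: measured within a kinome-wide kinase profiling panel, HIPK2 being one panel member.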
Chain of Homeodomain-interacting protein kinase 2 (Q9H2X6 whole entry): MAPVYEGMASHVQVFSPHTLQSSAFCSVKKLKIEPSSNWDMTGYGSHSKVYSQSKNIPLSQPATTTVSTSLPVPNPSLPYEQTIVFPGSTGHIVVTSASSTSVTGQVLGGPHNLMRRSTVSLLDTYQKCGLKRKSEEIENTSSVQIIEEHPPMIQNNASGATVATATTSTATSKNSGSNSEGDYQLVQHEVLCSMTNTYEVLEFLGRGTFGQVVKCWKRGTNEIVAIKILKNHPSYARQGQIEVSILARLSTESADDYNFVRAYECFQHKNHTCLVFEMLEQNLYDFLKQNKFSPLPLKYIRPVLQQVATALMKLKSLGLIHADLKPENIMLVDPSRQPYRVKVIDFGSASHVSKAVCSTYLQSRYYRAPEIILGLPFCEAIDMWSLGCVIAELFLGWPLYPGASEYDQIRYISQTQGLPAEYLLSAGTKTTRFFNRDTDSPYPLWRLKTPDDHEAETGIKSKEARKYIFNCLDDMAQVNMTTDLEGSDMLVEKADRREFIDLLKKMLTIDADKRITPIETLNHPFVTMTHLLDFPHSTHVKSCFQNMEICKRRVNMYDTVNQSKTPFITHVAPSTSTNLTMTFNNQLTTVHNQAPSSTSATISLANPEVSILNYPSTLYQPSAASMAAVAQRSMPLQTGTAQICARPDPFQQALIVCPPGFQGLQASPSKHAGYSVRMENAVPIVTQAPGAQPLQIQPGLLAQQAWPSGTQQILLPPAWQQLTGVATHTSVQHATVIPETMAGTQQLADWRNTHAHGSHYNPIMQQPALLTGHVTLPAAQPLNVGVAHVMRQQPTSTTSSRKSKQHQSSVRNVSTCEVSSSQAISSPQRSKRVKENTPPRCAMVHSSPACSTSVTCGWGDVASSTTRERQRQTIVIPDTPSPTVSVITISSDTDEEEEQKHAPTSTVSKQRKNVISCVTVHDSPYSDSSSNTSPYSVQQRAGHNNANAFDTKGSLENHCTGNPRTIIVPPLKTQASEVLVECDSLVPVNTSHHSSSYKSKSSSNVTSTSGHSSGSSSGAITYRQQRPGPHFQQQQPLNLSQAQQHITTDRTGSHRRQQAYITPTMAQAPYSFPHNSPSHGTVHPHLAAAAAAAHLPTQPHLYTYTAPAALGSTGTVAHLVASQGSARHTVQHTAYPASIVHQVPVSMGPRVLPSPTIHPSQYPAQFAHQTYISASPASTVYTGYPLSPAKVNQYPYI
In experiment [10] the target is Receptor-type tyrosine-protein kinase FLT3 (Homo sapiens, UniProt P36888). The class given is functional.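 Further: FLT3 was tested as one member of a kinome-wide kinase panel.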
In experiment [11] the target is Dual specificity tyrosine-phosphorylation-regulated kinase 1A (Homo sapiens, UniProt Q13627). The class given is functional.
Experiment [12] has as its target Serine/threonine-protein kinase 17A (Homo sapiens, UniProt Q9UEE5). The class given is functional.

Active and inactive are the calls of the source.

Chain of Photoreceptor-specific nuclear receptor (Q9Y5X4 whole entry): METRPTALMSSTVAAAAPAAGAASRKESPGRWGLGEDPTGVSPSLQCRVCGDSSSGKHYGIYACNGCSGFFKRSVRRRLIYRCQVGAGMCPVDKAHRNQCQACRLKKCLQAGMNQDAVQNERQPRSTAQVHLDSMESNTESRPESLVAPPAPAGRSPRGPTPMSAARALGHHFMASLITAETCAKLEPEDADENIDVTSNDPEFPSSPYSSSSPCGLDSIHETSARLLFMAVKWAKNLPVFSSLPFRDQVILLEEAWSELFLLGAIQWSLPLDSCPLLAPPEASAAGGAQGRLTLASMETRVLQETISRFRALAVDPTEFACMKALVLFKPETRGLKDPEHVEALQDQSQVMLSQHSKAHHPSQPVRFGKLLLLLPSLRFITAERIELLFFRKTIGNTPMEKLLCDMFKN
Chain of Activated CDC42 kinase 1 (Q07912 whole entry): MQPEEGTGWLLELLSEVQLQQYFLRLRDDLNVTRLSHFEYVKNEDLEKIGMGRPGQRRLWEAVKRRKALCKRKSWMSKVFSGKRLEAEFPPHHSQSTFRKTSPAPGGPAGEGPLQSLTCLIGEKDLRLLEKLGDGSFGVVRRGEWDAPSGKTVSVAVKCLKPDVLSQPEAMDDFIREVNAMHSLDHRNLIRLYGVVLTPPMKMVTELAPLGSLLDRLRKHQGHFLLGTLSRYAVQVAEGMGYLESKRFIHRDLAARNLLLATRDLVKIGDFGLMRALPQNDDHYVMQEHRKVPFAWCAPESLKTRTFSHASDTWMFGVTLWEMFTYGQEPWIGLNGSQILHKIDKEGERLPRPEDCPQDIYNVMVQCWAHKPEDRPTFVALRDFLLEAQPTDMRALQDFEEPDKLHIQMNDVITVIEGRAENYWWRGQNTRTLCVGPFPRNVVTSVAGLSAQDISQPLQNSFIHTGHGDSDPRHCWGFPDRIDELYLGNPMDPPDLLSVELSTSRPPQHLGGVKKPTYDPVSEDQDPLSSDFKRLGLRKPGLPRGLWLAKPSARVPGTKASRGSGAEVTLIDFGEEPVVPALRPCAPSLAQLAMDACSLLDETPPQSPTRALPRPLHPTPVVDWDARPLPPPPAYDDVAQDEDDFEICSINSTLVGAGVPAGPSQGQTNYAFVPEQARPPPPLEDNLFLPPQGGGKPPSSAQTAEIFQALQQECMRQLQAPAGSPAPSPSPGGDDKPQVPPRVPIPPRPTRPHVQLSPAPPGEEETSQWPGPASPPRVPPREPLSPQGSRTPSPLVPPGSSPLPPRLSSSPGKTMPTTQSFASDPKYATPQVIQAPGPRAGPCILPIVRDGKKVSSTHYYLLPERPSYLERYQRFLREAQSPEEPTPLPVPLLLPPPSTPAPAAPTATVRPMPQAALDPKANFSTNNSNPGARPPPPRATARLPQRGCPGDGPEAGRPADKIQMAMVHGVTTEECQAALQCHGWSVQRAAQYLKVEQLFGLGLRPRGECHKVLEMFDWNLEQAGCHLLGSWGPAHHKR
Chain of Inhibitor of nuclear factor kappa-B kinase subunit epsilon (Q14164 whole entry): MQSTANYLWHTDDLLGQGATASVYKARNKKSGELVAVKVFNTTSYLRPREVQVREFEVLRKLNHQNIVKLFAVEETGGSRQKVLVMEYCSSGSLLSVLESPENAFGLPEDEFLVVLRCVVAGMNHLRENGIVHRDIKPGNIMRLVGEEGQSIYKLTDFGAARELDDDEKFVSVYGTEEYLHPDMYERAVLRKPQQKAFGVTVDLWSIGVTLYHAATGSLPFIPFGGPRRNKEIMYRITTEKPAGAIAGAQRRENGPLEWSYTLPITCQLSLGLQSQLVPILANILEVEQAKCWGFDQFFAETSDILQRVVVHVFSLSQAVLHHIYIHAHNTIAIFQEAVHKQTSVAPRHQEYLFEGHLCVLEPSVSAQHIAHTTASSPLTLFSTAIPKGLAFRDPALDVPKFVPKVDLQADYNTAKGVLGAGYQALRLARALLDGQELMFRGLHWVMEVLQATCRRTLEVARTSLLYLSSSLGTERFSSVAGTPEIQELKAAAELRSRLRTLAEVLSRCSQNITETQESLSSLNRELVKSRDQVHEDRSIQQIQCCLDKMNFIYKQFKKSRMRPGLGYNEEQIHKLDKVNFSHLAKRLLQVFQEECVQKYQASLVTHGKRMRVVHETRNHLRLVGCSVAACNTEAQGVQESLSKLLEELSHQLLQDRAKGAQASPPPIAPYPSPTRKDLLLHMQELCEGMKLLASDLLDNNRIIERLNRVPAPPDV
Chain of Serine/threonine-protein kinase 17A (Q9UEE5 whole entry): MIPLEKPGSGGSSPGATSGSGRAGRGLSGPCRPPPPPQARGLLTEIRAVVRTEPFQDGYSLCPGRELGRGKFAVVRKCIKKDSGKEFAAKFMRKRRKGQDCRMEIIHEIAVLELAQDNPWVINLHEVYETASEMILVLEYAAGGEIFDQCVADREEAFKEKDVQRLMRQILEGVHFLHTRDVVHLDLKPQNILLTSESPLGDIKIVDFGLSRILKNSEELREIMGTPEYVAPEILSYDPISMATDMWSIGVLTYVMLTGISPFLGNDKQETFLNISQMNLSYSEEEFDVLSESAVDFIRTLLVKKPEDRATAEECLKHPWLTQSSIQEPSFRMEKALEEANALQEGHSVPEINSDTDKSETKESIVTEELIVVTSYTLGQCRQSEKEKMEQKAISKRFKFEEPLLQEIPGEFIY

On to `O=C1C=C(N2CCOCC2)c2ccccc2C1=O`, for which the AC50 in experiment [1] was 5.14 µM (active); in experiment [2] it was 1.05 µM (active). In addition, the EC50 in experiment [3] was 0.15 µM (active). The figures for the half-maximal inhibitory concentration (IC50) in experiment [4] and in [5] were > 39.8 µM (not active) and 10.3 µM (inactive), respectively.
With `N#Cc1ccc2[nH]c(O)c(-c3ccc(CN4CCOCC4)cn3)c2c1` [AZD-1080], the Ki was > 2.51 µM (inactive) in experiment [6]; > 3.16 µM (inactive) in experiment [7]; > 3.98 µM (inactive) in experiment [8]; > 3.16 µM (inactive) in [9]; > 3.16 µM (inactive) in experiment [10]; > 3.16 µM (inactive) in experiment [11]. The inhibition constant Ki in [12] was 0.501 µM (active).
`CCc1oc2ccccc2c1C(=O)c1cc(Br)c(O)c(Br)c1` [BENZBROMARONE]: the AC50 in experiment [2] is 2.75 µM (active). Further, in experiment [3], the concentration for a half-maximal effect (EC50) is 11.5 µM (active). Also, the 50% inhibitory concentration (IC50) in experiment [4] is > 39.8 µM (not active).
